Data published in paper PMC11871066, “Structure-based discovery of hydrocarbon-stapled paxillin peptides that block FAK scaffolding in cancer” (Nature Communications, 2025).
Blank lines part the entries; values can stand above or below the molecule they belong to. Bridge positions count the residues as written; N and C are the ends. Square brackets hold non-standard residues; d marks the D form. Peptide text beside a SMILES is read from it. * marks the point of attachment. Myristoyl = CCCCCCCCCCCCCC(=O)*; R8 = C=CCCCCCC[C@@](C)(N)C(=O)O; S5 = C=CCCC[C@](C)(N)C(=O)O

Legend:
[1] = mouse
[2] = Liver microsomal stability; conditions: human liver microsomes
[3] = In vivo pharmacokinetics, single i.p. administration; conditions: Cmax vs IC50 0.8 µM
Protocol: (§1) Cell permeability of peptide drugs was determined by fluorescence measurement of TAMRA-labeled peptides in 96-well plates and ClarioStar Plus plate reader using BMG ClarioStar MARS software (version 4.20). […] Percent uptake was calculated as background-subtracted fluorescence absorbed by cells/fluorescence of peptide in media-only wells, then made relative to TAMRA-Alkyne. Three biological replicates (n = 3) were performed per cell line per treatment group. Peptide proteolysis was measured using immobilized Trypsin-agarose resin (Thermo Fisher) and quantification by LC-MS. […] In vivo pharmacokinetics were performed by the UACC Analytical Chemistry Shared Resource. […] The mice were fed NIH-31 irradiated pellets (Tekland Premier, Madison, Wisconsin), and reverse osmosis water was freely available. […] The average plasma concentration versus time data were analyzed using PKSolver (version 2.0) by a noncompartmental approach.

trypsin [4] = assay: in vitro; conditions: isolated enzyme trypsin
Protocol: as §1

in vitro = conditions: plasma
in vivo = conditions: female, Balb/cJ, mouse, ip
Protocol: as §1

[5] = molecular target: 97 kinases (kinase named in endpoint) (Homo sapiens, UniProt P36888); assay: Eurofins KINOMEscan profiling, 97 kinases; conditions: read-out: % Ctrl, FLT3
97 kinases (kinase named in endpoint) (Homo sapiens, UniProt P36888), sequence (P36888 27-993): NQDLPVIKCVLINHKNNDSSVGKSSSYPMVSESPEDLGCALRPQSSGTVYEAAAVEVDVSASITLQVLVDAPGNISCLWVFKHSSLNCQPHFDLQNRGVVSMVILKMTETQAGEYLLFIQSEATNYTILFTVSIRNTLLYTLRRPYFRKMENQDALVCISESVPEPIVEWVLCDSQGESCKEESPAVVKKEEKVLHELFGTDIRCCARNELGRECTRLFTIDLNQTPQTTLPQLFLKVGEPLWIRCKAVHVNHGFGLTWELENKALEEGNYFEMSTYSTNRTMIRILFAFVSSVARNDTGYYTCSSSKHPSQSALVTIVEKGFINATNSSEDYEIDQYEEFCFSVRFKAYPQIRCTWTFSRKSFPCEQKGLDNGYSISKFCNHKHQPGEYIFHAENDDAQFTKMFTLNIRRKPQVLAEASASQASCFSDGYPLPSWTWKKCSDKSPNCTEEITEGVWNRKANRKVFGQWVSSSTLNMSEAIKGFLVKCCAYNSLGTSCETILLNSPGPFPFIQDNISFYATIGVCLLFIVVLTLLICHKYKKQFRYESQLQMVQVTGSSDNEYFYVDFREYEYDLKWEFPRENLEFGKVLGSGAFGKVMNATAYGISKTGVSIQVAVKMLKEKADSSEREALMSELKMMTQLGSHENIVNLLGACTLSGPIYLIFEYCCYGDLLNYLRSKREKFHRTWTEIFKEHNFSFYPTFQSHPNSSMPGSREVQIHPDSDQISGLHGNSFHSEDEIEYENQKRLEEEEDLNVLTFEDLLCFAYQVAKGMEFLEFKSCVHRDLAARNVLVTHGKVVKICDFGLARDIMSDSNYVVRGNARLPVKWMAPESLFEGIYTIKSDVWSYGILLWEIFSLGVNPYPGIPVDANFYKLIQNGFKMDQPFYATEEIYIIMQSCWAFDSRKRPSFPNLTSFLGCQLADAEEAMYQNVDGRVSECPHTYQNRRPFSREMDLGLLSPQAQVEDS
Protocol: (§2) This experiment was performed by Eurofins KINOMEscan™ Profiling Service. […] The lysates were centrifuged and filtered, the remaining kinases were produced in HEK-293 cells and subsequently tagged with DNA for qPCR detection. […] The liganded beads were blocked with excess biotin and washed with blocking buffer (SeaBlock (Pierce), 1% BSA, 0.05% Tween-20, 1 mM DTT). […] Test compounds were prepared as 100x stocks in 100% DMSO and directly diluted into the assay. All reactions were performed in polypropylene 384-well plates in a final volume of 0.02 ml. […] The kinase concentration in the eluates was measured by qPCR.
(§3) (negative control signal - positive control signal)] x 100. ( b) AccompanyingSelectivity Scores or S -scores
(§4) which are quantitative measures of compound selectivity. They are calculated by dividing the number of
(§5) kinases that compounds bind to by the total number of distinct kinases tested, excluding mutant variants.
(§6) S(35)= ( num ber of non -mutant kinases with %Ctrl <35)/(number of non- mutant kinases tested)], S(10)=
(§7) non- mutant kinases with %Ctrl <1)/(number of non- mutant kinases tested)].

[6] = molecular target: 97 kinases (kinase named in endpoint) (Homo sapiens, UniProt P35968); assay: Eurofins KINOMEscan profiling, 97 kinases; conditions: read-out: % Ctrl, VEGFR2
Protocol: as §2, §3, §4, §5, §6, §7

[7] = molecular target: 97 kinases (kinase named in endpoint) (Homo sapiens, UniProt O00750); assay: Eurofins KINOMEscan profiling, 97 kinases; conditions: read-out: % Ctrl, PIK3C2B
97 kinases (kinase named in endpoint) (Homo sapiens, UniProt O00750), sequence (O00750 whole entry): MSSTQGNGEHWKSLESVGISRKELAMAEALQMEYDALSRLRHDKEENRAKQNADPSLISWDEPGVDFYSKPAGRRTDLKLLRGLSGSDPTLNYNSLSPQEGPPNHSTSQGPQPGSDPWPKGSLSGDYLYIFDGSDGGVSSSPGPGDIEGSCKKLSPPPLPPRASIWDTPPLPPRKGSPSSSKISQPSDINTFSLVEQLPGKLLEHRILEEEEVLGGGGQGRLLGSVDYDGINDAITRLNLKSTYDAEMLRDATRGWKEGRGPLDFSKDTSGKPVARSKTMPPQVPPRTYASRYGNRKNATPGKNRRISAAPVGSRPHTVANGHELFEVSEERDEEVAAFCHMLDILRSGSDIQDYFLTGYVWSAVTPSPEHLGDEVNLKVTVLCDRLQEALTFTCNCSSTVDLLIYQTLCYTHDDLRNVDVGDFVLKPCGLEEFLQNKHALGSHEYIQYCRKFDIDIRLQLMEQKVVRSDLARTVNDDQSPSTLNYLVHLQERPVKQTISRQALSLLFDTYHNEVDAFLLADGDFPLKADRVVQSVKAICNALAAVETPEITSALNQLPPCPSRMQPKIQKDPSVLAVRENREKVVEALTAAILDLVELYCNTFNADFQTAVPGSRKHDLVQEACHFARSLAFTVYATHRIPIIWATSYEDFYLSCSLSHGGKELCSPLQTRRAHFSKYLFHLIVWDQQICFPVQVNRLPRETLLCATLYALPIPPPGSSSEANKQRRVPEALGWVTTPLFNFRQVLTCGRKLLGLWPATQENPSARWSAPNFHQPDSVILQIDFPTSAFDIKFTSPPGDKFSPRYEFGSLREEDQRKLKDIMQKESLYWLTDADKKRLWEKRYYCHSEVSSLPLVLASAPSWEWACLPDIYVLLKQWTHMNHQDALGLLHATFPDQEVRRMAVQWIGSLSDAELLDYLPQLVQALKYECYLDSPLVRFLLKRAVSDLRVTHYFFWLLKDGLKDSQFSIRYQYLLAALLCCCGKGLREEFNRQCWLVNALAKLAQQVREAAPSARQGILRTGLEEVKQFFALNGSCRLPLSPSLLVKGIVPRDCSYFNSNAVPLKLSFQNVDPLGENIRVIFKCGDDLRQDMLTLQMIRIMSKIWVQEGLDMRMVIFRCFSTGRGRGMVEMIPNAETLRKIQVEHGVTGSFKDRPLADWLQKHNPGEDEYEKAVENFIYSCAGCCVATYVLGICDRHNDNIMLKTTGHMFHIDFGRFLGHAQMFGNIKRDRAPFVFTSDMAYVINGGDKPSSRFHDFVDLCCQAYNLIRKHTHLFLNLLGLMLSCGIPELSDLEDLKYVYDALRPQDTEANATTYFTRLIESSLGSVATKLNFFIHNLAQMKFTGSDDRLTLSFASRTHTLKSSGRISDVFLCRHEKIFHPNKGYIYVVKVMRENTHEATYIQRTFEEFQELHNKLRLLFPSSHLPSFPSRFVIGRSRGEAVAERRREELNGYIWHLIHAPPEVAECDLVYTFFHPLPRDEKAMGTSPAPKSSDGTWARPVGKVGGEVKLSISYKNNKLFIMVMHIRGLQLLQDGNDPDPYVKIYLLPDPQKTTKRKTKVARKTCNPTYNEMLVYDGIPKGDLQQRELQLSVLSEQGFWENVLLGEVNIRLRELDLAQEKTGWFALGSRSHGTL
Protocol: as §2, §3, §4, §5, §6, §7

[8] = molecular target: 97 kinases (kinase named in endpoint) (Homo sapiens, UniProt P17612); assay: Eurofins KINOMEscan profiling, 97 kinases; conditions: read-out: % Ctrl, PKAC-alpha
Protocol: as §2, §3, §4, §5, §6, §7

[9] = molecular target: 97 kinases (kinase named in endpoint) (Homo sapiens, UniProt Q9P1W9); assay: Eurofins KINOMEscan profiling, 97 kinases; conditions: read-out: % Ctrl, PIM2
97 kinases (kinase named in endpoint) (Homo sapiens, UniProt Q9P1W9), sequence (Q9P1W9 whole entry): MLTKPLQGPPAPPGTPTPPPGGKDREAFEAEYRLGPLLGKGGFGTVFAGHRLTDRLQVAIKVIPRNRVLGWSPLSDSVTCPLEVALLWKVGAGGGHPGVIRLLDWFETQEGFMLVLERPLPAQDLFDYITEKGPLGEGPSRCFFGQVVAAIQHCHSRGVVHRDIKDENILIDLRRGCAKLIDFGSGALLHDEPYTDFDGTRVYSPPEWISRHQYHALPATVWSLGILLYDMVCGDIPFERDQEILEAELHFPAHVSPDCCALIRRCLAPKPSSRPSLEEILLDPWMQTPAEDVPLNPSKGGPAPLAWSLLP
Protocol: as §2, §3, §4, §5, §6, §7

[10] = molecular target: 97 kinases (kinase named in endpoint) (Homo sapiens, UniProt P08581); assay: Eurofins KINOMEscan profiling, 97 kinases; conditions: read-out: % Ctrl, MET
Protocol: as §2, §3, §4, §5, §6, §7

[11] = molecular target: 97 kinases (kinase named in endpoint) (Homo sapiens, UniProt O14920); assay: Eurofins KINOMEscan profiling, 97 kinases; conditions: read-out: % Ctrl, IKK-beta
97 kinases (kinase named in endpoint) (Homo sapiens, UniProt O14920), sequence (O14920 whole entry): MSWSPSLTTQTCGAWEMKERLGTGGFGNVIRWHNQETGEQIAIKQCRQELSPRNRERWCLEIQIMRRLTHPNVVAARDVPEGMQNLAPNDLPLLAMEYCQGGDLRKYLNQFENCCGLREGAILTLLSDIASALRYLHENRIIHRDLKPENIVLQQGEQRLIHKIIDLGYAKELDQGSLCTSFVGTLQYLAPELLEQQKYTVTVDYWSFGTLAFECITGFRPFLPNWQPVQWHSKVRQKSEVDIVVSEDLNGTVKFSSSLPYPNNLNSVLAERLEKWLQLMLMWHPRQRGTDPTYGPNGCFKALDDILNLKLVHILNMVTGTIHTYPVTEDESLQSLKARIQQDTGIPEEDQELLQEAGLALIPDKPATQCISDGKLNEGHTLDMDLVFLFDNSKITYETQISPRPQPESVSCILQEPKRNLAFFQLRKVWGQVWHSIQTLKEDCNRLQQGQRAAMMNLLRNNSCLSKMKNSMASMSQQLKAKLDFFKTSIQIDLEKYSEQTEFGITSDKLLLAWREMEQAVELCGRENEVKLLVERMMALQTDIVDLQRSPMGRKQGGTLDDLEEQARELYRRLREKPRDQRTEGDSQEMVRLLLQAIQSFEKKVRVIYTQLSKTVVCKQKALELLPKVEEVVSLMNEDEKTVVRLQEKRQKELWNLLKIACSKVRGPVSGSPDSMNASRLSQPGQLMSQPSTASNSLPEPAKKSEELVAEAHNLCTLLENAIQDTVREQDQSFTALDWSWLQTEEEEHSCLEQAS
Protocol: as §2, §3, §4, §5, §6, §7

[12] = molecular target: 97 kinases (kinase named in endpoint) (Homo sapiens, UniProt Q02763); assay: Eurofins KINOMEscan profiling, 97 kinases; conditions: read-out: % Ctrl, TIE2
Protocol: as §2, §3, §4, §5, §6, §7

[13] = molecular target: 97 kinases (kinase named in endpoint) (Homo sapiens, UniProt P48736); assay: Eurofins KINOMEscan profiling, 97 kinases; conditions: read-out: % Ctrl, PIK3CG
Protocol: as §2, §3, §4, §5, §6, §7

[14] = molecular target: 97 kinases (kinase named in endpoint) (Homo sapiens, UniProt P15056); assay: Eurofins KINOMEscan profiling, 97 kinases; conditions: read-out: % Ctrl, BRAF
97 kinases (kinase named in endpoint) (Homo sapiens, UniProt P15056), sequence (P15056 whole entry): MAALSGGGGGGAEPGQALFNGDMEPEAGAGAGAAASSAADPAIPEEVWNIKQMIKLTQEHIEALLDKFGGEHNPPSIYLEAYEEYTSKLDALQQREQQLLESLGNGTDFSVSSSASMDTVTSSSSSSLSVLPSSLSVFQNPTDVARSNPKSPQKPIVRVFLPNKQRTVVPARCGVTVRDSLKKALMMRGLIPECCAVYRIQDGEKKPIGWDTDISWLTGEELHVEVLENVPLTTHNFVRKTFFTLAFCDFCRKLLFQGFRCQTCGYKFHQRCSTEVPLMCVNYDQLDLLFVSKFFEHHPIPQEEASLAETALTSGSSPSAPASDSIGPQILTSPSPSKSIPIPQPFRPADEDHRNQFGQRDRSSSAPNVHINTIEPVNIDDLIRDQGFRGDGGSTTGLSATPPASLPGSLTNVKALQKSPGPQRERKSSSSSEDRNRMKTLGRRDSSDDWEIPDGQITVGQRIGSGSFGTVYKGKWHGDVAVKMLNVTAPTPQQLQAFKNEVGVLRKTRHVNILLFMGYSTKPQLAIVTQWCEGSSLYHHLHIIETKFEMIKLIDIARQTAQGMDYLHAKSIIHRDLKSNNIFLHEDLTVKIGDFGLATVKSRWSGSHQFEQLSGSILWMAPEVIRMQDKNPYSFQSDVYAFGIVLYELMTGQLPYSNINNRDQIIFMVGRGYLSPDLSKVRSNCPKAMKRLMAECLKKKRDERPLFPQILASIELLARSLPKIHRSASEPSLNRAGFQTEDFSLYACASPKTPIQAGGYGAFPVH
Protocol: as §2, §3, §4, §5, §6, §7

[15] = molecular target: 97 kinases (kinase named in endpoint) (Homo sapiens, UniProt Q9H093); assay: Eurofins KINOMEscan profiling, 97 kinases; conditions: read-out: % Ctrl, SNARK
97 kinases (kinase named in endpoint) (Homo sapiens, UniProt Q9H093), sequence (Q9H093 whole entry): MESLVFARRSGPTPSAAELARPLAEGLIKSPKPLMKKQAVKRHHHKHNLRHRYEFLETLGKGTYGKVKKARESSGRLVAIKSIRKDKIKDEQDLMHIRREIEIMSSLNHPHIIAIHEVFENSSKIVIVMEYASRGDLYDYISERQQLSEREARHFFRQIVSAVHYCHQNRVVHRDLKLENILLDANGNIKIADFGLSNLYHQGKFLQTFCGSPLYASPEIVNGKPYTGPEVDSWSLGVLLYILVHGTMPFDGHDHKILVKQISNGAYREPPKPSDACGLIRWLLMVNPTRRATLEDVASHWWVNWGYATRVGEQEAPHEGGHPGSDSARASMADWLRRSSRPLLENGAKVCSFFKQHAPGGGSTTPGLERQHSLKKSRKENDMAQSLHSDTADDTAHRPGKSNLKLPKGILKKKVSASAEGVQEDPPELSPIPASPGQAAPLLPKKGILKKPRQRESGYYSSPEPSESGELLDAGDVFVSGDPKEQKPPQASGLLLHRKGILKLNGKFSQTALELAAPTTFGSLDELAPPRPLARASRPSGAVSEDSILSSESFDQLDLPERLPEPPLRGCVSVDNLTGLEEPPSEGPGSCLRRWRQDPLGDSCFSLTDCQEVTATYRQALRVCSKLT
Protocol: as §2, §3, §4, §5, §6, §7

[16] = mouse, in vivo, ip
Protocol: as §1

trypsin [17] = assay: Trypsin proteolytic resistance assay; conditions: immobilized trypsin-agarose resin
Protocol: as §1

kinases = conditions: 1 µM, ref Cromm et al, 2018; cited from earlier work
Protocol: page 11: Comment 5: Reviewer Comment: “Line 299: “indicating potential [defactinib] toxicity beyond the 2.5 μM”. […] The high non- selectivity of defactinib at low micromolar doses indicates the potential of off-target effects and toxicity beyond 2.5 µM.

[18] = test system: 97 kinases (kinase named in endpoint); assay: Eurofins KINOMEscan profiling, 97 kinases; conditions: 1 µM
Protocol: as §2, §3, §4, §5, §6, §7

Compound: CCCCCCCCCCCCCC(=O)N[C@@H](CC(N)=O)C(=O)N[C@@H](CC(C)C)C(=O)N[C@]1(C)CCCCCCC=CCCC[C@@](C)(C(=O)N[C@@H](CCC(=O)O)C(=O)N[C@@H](CC(C)C)C(=O)N[C@@H](CC(N)=O)C(N)=O)NC(=O)[C@H](CC(C)C)NC(=O)[C@H](CC(C)C)NC(=O)[C@H](CCCNC(=N)N)NC(=O)[C@H](CC(=O)O)NC(=O)[C@H](CC(C)C)NC(=O)[C@H](CCC(=O)O)NC1=O [compound 2012]
- plasma stability t1/2 [1]: > 2 h
- remaining in liver microsomes ([2]; 0 min, Rep1): 98
- remaining in liver microsomes ([2]; 0 min, Rep2): 102
- remaining in liver microsomes ([2]; 5 min, Rep1): 98
- remaining in liver microsomes ([2]; 5 min, Rep2): 94
- remaining in liver microsomes ([2]; 15 min, Rep1): 100
- remaining in liver microsomes ([2]; 15 min, Rep2): 98
- remaining in liver microsomes ([2]; 30 min, Rep1): 100
- remaining in liver microsomes ([2]; 30 min, Rep2): 101
- remaining in liver microsomes ([2]; 60 min, Rep1): 97
- remaining in liver microsomes ([2]; 60 min, Rep2): 94
- excess of plasma concentration over focal adhesion IC50 [3]: 60 fold
- remaining at 0.25 h, 100 µM (trypsin [4]): 91%
- remaining at 0.5 h, 100 µM (trypsin [4]): 108%
- remaining at 1 h, 100 µM (trypsin [4]): 102%
- remaining at 2 h, 100 µM (trypsin [4]): 85%
- remaining at 3 h, 100 µM (trypsin [4]): 104%
- remaining at 4 h, 100 µM (trypsin [4]): 91%
- remaining at 6 h, 100 µM (trypsin [4]): 93%
- remaining at 8 h, 100 µM (trypsin [4]): 111%
- remaining at 24 h, 100 µM (trypsin [4]): 97%
- remaining at 48 h, 100 µM (trypsin [4]): 89%
- fraction unbound (in vitro): < 0.01
- Cmax (in vivo): 89.4 µg/mL
- half-life (in vivo): 16.5 h
- level at 0.5 h (in vivo; 2012 concentration): 11.4 µg/mL
- remaining binding at 1 µM [5]: 93%
- remaining binding at 1 µM [6]: 100%
- remaining binding at 1 µM [7]: 100%
- remaining binding at 1 µM [8]: 91%
- remaining binding at 1 µM [9]: 100%
- remaining binding at 1 µM [10]: 100%
- remaining binding at 1 µM [11]: 100%
- remaining binding at 1 µM [12]: 98%
- remaining binding at 1 µM [13]: 99%
- remaining binding at 1 µM [14]: 100%
- remaining binding at 1 µM [15]: 100%
- Cmax, molar concentration [16]: 48.5 µM
- plasma clearance [16]: 0.26 mL/min/kg

- remaining at 0.25 h, 100 µM (trypsin [17]): 97%
- remaining at 0.5 h, 100 µM (trypsin [17]): 99%
- remaining at 1 h, 100 µM (trypsin [17]): 98%
- remaining at 2 h, 100 µM (trypsin [17]): 95%
- remaining at 3 h, 100 µM (trypsin [17]): 90%
- remaining at 4 h, 100 µM (trypsin [17]): 92%
- remaining at 6 h, 100 µM (trypsin [17]): 93%
- remaining at 8 h, 100 µM (trypsin [17]): 93%
- remaining at 24 h, 100 µM (trypsin [17]): 91%
- remaining at 48 h, 100 µM (trypsin [17]): 89%
Compound: CCCCCCCCCCCCCC(=O)N[C@@H](CC(N)=O)C(=O)N[C@@H](CC(C)C)C(=O)N[C@]1(C)CCCCCCC=CCCC[C@@](C)(C(=O)N[C@@H](CCC(=O)O)C(=O)N[C@@H](CCC(=O)O)C(=O)N[C@@H](CC(N)=O)C(N)=O)NC(=O)[C@H](CC(C)C)NC(=O)[C@H](CC(C)C)NC(=O)[C@H](CCCNC(=N)N)NC(=O)[C@H](CC(=O)O)NC(=O)[C@H](CCC(=O)O)NC(=O)[C@H](CCC(=O)O)NC1=O [compound 2020] (Myristoyl-NL[R8]EEDRLL[S5]EEN-NH2; staple 3-10)

Compound: CNC(=O)c1ccc(Nc2ncc(C(F)(F)F)c(NCc3nccnc3N(C)S(C)(=O)=O)n2)cc1 [defactinib]
- number of kinases bound with more than 65% inhibition (kinases): ≥ 100
- remaining binding at 1 µM [5]: 1.1%
- remaining binding at 1 µM [6]: 37%
- additional kinases other than FAK inhibited [18]: 44
- kinases inhibited >50% (interactions mapped) out of 97 tested [18]: 45
- selectivity score S(1) ([18]; 90 non-mutant kinases): 0.033
- selectivity score S(10) ([18]; 90 non-mutant kinases): 0.122
- selectivity score S(35) ([18]; 90 non-mutant kinases): 0.256
- Number of Hits, S(1) ([18]; %Ctrl <1, 90 non-mutant kinases): 3
- Number of Hits, S(10) ([18]; %Ctrl <10, 90 non-mutant kinases): 11
- Number of Hits, S(35) ([18]; %Ctrl <35, 90 non-mutant kinases): 23
- remaining binding at 1 µM [7]: 100%
- remaining binding at 1 µM [8]: 72%
- remaining binding at 1 µM [9]: 100%
- remaining binding at 1 µM [10]: 15%
- remaining binding at 1 µM [11]: 100%
- remaining binding at 1 µM [12]: 41%
- remaining binding at 1 µM [13]: 85%
- remaining binding at 1 µM [14]: 100%
- remaining binding at 1 µM [15]: 13%
